Results: US20230295181A1, “INHIBITOR OF APOPTOSIS (IAP) PROTEIN ANTAGONISTS” (Sanford Burnham Prebys Medical Discovery Institute, priority 2020, published 2023)
Structures can show the parent of a compound that is named as a salt.

The compounds below were run on SKOV-3 cancer cell lines (assay: SKOV-3 cell viability after treatment with 10 μM test compound). Conditions: 10 micromolar test compound, dihydrochloride.
Assay type: cell-based
Experimental: SKOV-3 cancer cell lines were treated with a test compound, either as a pure enantiomer or a mixture of stereoisomers, at a concentration of 10 μM. Cell viability was evaluated following treatment with a compound as disclosed in Table B. Viability of cancer cells following treatment is indicated according to the following legend:
A=0-25% viability B=26-50% viability C=>50% viability

Compound | % viability after treatment with 10 micromolar of test compound (SKOV-3 cells)
CN[C@@H](C)C(=O)N[C@H]1CCO[C@H]2CC(C)(C)[C@@H](CN[C@@H]3CCSc4ccccc43)N2C1=O [Compound 68, (S)—N-((4S,7S,9aS)-8,8-dimethyl-5-oxo-7-((((R)-thiochroman-4-yl)amino)methyl)octahydropyrrolo[2,1-b][1,3]oxazepin-4-yl)-2-(methylamino)propanamide dihydrochloride] | C (C=>50% viability)
CN[C@@H](C)C(=O)N[C@H]1CCO[C@H]2CC(C)(C)[C@@H](CN[C@@H]3CCSc4ccccc43)N2C1=O [Compound 67, (S)—N-((4S,7S,9aS)-8,8-dimethyl-5-oxo-7-((((R)-thiochroman-4-yl)amino)methyl)octahydropyrrolo[2,1-b][1,3]oxazepin-4-yl)-2-(methylamino)propanamide dihydrochloride] | B (B=26-50% viability)

Same assay, conditions: 10 micromolar test compound, hydrochloride

Compound | % viability after treatment with 10 micromolar of test compound (SKOV-3 cells)
C=CCC1(CC=C)C[C@@H]2OCC[C@H](NC(=O)[C@H](C)NC)C(=O)N2[C@@H]1C(=O)NC(c1ccccc1)c1ccccc1 [Compound 52, (4S)-8,8-diallyl-N-benzhydryl-4-((S)-2-(methylamino)propanamido)-5-oxooctahydropyrrolo[2,1-b][1,3]oxazepine-7-carboxamide hydrochloride] | B (B=26-50% viability)
C=CCC1(CC=C)C[C@@H]2OCC[C@H](NC(=O)[C@H](C)NC)C(=O)N2[C@@H]1C(=O)NC(c1ccccc1)c1ccccc1 [Compound 50, (4S)-8,8-diallyl-N-benzhydryl-4-((S)-2-(methylamino)propanamido)-5-oxooctahydropyrrolo[2,1-b][1,3]oxazepine-7-carboxamide hydrochloride] | B (B=26-50% viability)
CN[C@@H](C)C(=O)N[C@H]1CCS[C@H]2CC(C(C)C)(C(C)C)[C@@H](C(=O)N[C@@H]3CCCc4ccccc43)N2C1=O [Compound 43, 4S,9aS)-8,8-diisopropyl-4-((S)-2-(methylamino)propanamido)-5-oxo-N—((R)-1,2,3,4-tetrahydronaphthalen-1-yl)octahydropyrrolo[2,1-b][1,3]thiazepine-7-carboxamide hydrochloride] | C (C=>50% viability)
CN[C@@H](C)C(=O)N[C@H]1CCO[C@H]2CC(C(C)C)(C(C)C)[C@@H](C(=O)NC(c3ccccc3)c3ccccc3)N2C1=O [Compound 61, (4S)—N-benzhydryl-8,8-diisopropyl-4-((S)-2-(methylamino)propanamido)-5-oxooctahydropyrrolo[2,1-b][1,3]oxazepine-7-carboxamide hydrochloride] | B (B=26-50% viability)
CN[C@@H](C)C(=O)N[C@H]1CCO[C@H]2CC(C(C)C)(C(C)C)[C@@H](C(=O)NC(c3ccccc3)c3ccccc3)N2C1=O [Compound 60, (4S)—N-benzhydryl-8,8-diisopropyl-4-((S)-2-(methylamino)propanamido)-5-oxooctahydropyrrolo[2,1-b][1,3]oxazepine-7-carboxamide hydrochloride] | A (A=0-25% viability)
C=CCC1C[C@@H]2SCC[C@H](NC(=O)[C@H](C)NC)C(=O)N2[C@@H]1C(=O)N[C@@H]1CCCc2ccccc21 (stereo partly drawn) [Compound 27, (4S,9aS)-8,8-allyl-4-((S)-2-(methylamino)propanamido)-5-oxo-N—((R)-1,2,3,4-tetrahydronaphthalen-1-yl)octahydropyrrolo[2,1-b][1,3]thiazepine-7-carboxamide hydrochloride] | B (B=26-50% viability)
CN[C@@H](C)C(=O)N[C@H]1CCS[C@H]2CC(CCc3ccccc3)[C@@H](C(=O)N[C@@H]3CCCc4ccccc43)N2C1=O (stereo partly drawn) [Compound 46, (4S,9aS)-4-((S)-2-(methylamino)propanamido)-5-oxo-8,8-phenethyl-N—((R)-1,2,3,4-tetrahydronaphthalen-1-yl)octahydropyrrolo[2,1-b][1,3]thiazepine-7-carboxamide hydrochloride] | B (B=26-50% viability)
CN[C@@H](C)C(=O)N[C@H]1CCS[C@H]2CC(C(C)C)(C(C)C)[C@@H](C(=O)N[C@@H]3CCCc4ccccc43)N2C1=O [Compound 40, 4S,9aS)-8,8-diisopropyl-4-((S)-2-(methylamino)propanamido)-5-oxo-N—((R)-1,2,3,4-tetrahydronaphthalen-1-yl)octahydropyrrolo[2,1-b][1,3]thiazepine-7-carboxamide hydrochloride] | C (C=>50% viability)

Same assay, conditions: Homo sapiens, SK-OV-3, 10 micromolar test compound; SKOV-3 cells

Compound | viability at 10 µM [%]
CN[C@@H](C)C(=O)N[C@H]1Cc2ccc(OC)cc2[C@H]2CC(C)(C)C(C(=O)NC(c3ccccc3)c3ccccc3)N2C1=O (single isomer, unassigned) [Compound 6, hydrochloride] | 26 to 50
C=CCC1(CC=C)C[C@@H]2OCC[C@H](NC(=O)[C@H](C)NC)C(=O)N2C1C(=O)N[C@@H]1CCCc2ccccc21 (stereo partly drawn) [Compound 12, (4S,9aS)-8,8-diallyl-4-((S)-2-(methylamino)propanamido)-5-oxo-N—((R)-1,2,3,4-tetrahydronaphthalen-1-yl)octahydropyrrolo[2,1-b][1,3]oxazepine-7-carboxamide hydrochloride] | 26 to 50
CN[C@@H](C)C(=O)N[C@H]1CCS[C@H]2CC(C)(C)[C@@H](C(=O)N[C@H](CCC(=O)O)c3ccccc3)N2C1=O [Compound 77, (R)-4-((4S,7S,9aS)-8,8-dimethyl-4-((S)-2-(methylamino)propanamido)-5-oxooctahydropyrrolo[2,1-b][1,3]thiazepine-7-carboxamido)-4-phenylbutanoic acid hydrochloride] | 26 to 50
CN[C@@H](C)C(=O)N[C@H]1Cc2c([nH]c3ccccc23)[C@H]2CC(C)(C)[C@@H](C(=O)NC(c3ccccc3)c3ccccc3)N2C1=O [Compound 54, (6S)—N-benzhydryl-2,2-dimethyl-6-((S)-2-(methylamino)propanamido)-5-oxo-1,2,3,5,6,7,12,12b-octahydropyrrolo[1′,2′:1,2]azepino[3,4-b]indole-3-carboxamide hydrochloride] | > 50
CN[C@@H](C)C(=O)N[C@H]1Cc2cc(OC)ccc2[C@H]2CC(C)(C)[C@H](C(=O)N[C@@H]3CCCc4ccccc43)N2C1=O [Compound 8, (6S,11bR)-9-methoxy-2,2-dimethyl-6-((S)-2-(methylamino)propanamido)-5-oxo-N—((R)-1,2,3,4-tetrahydronaphthalen-1-yl)-2,3,5,6,7,11b-hexahydro-1H-benzo[c]pyrrolo[1,2-a]azepine-3-carboxamide hydrochloride] | 26 to 50
C=CCC1(CC=C)C[C@@H]2SCC[C@H](NC(=O)[C@H](C)NC)C(=O)N2[C@H]1C(=O)N[C@@H]1CCCc2ccccc21 [Compound 28, (4S,9aS)-8,8-diallyl-4-((S)-2-(methylamino)propanamido)-5-oxo-N—((R)-1,2,3,4-tetrahydronaphthalen-1-yl)octahydropyrrolo[2,1-b][1,3]thiazepine-7-carboxamide hydrochloride] | 26 to 50
CN[C@@H](C)C(=O)N[C@H]1CCO[C@H]2CC(CCc3ccccc3)(CCc3ccccc3)[C@@H](C(=O)NC(c3ccccc3)c3ccccc3)N2C1=O [Compound 62, (4S)—N-benzhydryl-4-((S)-2-(methylamino)propanamido)-5-oxo-8,8-diphenethyloctahydropyrrolo[2,1-b][1,3]oxazepine-7-carboxamide hydrochloride] | > 50
CN[C@@H](C)C(=O)N[C@H]1Cc2ccc(OC)cc2[C@H]2CC(C)(C)[C@H](C(=O)N[C@@H]3CCCc4ccccc43)N2C1=O [Compound 10, (6S,11bR)-10-methoxy-2,2-dimethyl-6-((S)-2-(methylamino)propanamido)-5-oxo-N—((R)-1,2,3,4-tetrahydronaphthalen-1-yl)-2,3,5,6,7,11b-hexahydro-1H-benzo[c]pyrrolo[1,2-a]azepine-3-carboxamide hydrochloride] | 26 to 50
C=CCC1C[C@@H]2OCC[C@H](NC(=O)[C@H](C)NC)C(=O)N2[C@H]1C(=O)N[C@@H]1CCCc2ccccc21 (stereo partly drawn) [Compound 13, (4S,9aS)-8,8-allyl-4-((S)-2-(methylamino)propanamido)-5-oxo-N—((R)-1,2,3,4-tetrahydronaphthalen-1-yl)octahydropyrrolo[2,1-b][1,3]oxazepine-7-carboxamide hydrochloride] | 26 to 50
C=CCC1C[C@@H]2OCC[C@H](NC(=O)[C@H](C)NC)C(=O)N2[C@@H]1C(=O)NC(c1ccccc1)c1ccccc1 (stereo partly drawn) [Compound 53, (4S)-8,8-allyl-N-benzhydryl-4-((S)-2-(methylamino)propanamido)-5-oxooctahydropyrrolo[2,1-b][1,3]oxazepine-7-carboxamide hydrochloride] | 26 to 50
CN[C@@H](C)C(=O)N[C@H]1CCO[C@H]2CC(C)(C)C(c3nc4ccccc4o3)N2C1=O (stereo partly drawn) [Compound 72, (2S)—N-((4S,9aS)-7-(benzo[d]oxazol-2-yl)-8,8-dimethyl-5-oxooctahydropyrrolo[2,1-b][1,3]oxazepin-4-yl)-2-(methylamino)propanamide hydrochloride] | > 50
CN[C@@H](C)C(=O)N[C@H]1Cc2cc(OC)ccc2[C@H]2CC(C)(C)C(C(=O)NC(c3ccccc3)c3ccccc3)N2C1=O (stereo partly drawn) [Compound 5, (6S,11bR)—N-benzhydryl-9-methoxy-2,2-dimethyl-6-((S)-2-(methylamino)propanamido)-5-oxo-2,3,5,6,7,11b-hexahydro-1H-benzo[c]pyrrolo[1,2-a]azepine-3-carboxamide] | > 50
